In patent publication US20160193148A1, “LIPOSOMAL FORMULATIONS FOR THE TREATMENT OF BACTERIAL INFECTIONS” (UNIVERSITY OF GEORGIA RESEARCH FOUNDATION, INC., priority 2013, published 2016):
Read-outs that look alike come from different tables or passages of the source. Marks after values point to notes of the source that are not given here.

What was measured:
[1] = PELF gentamicin concentrations after single IV or nebulized dose in foals
Experimental: Eight healthy 5-7-week-old Quarter Horse foals were randomly assigned to one of 4 groups using a balanced Latin-square design. Foals were considered healthy on the basis of physical examinations, complete blood cell counts and plasma biochemical profiles. […] The liposome gentamicin formulation was nebulized using Nortev FLEXINEB. For each treatment, gentamicin was administered over a period of 15 minutes. There was a washout period of 7-14 days between each treatment.
For the BAL collection, foals were sedated with xylazine and butorphanol. Concentrations of gentamicin were measured in plasma and in bronchoalveolar cells using HPLC-MS.
Eight foals received a single IV or nebulized dose (6.6 mg/kg bwt) of FG^h or LG in a balanced Latin square design. Beginning at 5-7 weeks of age, every foal received each of the 4 possible drug-route combinations with a 14-day washout period between each administration. Intravenous FG and LG were diluted in 250 ml of sterile 0.9% saline and administered via a jugular catheter as a constant rate infusion over 15 min. Nebulized FG and LG were administered by inhalation over 15 minutes via a commercial equine nebulizer. To ensure equivalent rate of delivery, FG was diluted to the same volume as LG with sterile 0.9% saline. Particle size of nebulized LG was verified using laser diffraction. Blood samples for plasma separation were obtained from a catheter placed in the contralateral jugular vein prior to each drug administration, and at 5, 10, 20, 30, 45 minutes and 1, 1.5, 2, 3, 4, 6, 8, 12, 16, 24 and 48 hours after the end of the 15 minute IV infusion or nebulization period. Bronchoalveolar lavage (BAL) fluid was collected at 2, 4, 8, 24, and 48 hours. Foals were sedated with xylazine hydrochloride (0.5 mg/kg bwt IV) and butorphanol tartrate (0.07 mg/kg bwt IV) prior to collection of BAL fluid. Prior to analysis for gentamicin concentration, blood samples were centrifuged at 400×g for 10 minutes and the resultant plasma frozen at −80° C. until assayed.
(§1) A 10 mm diameter, 2.4 m BAL catheter^k was passed via nasal approach until wedged into a bronchus. The lavage solution consisted of 4 aliquots of 60 ml 0.9% saline solution infused and instantly aspirated. Immediately upon collection, the total volume of BAL fluid recovered was measured and a 3 ml aliquot saved in an EDTA tube from which total nucleated cell count was determined by use of a cell counter.^1 BAL fluid was immediately centrifuged at 400×g for 10 min. The BAL cells in the resultant pellet were washed, re-suspended in 500 μl of acetonitrile: 0.2% formic acid (1:1, v/v), vortexed, and frozen at −80° C. until assayed. Supernatant BAL fluid was also frozen at −80° C. until assayed. Before assaying, the cell pellet samples were thawed, vortexed vigorously and sonicated for 10 minutes to ensure complete cell lysis. The resulting suspension was centrifuged at 500×g for 10 minutes and the supernatant fluid was used to determine the intracellular concentrations of gentamicin.
(§2) Briefly, gentamicin was extracted from plasma (250 μl) and urine (500 μl) using protein precipitation with an equal volume of ice-cold 90:10 acetonitrile: 0.2% formic acid (v/v). Extracted samples were centrifuged (2° C. at 10,000×g for 10 min) twice. Two-hundred microliters of the supernatants were transferred to polypropylene inserts for injection. The supernatant derived from the lyzed BAL cell pellet was transferred to polypropylene inserts for direct injection without further processing. […] An aliquot of the resultant supernatant was then mixed with an equal volume of ice-cold acetonitrile, centrifuged (2° C. at 10,000×g for 10 minutes) and 200 μl was transferred to polypropylene inserts for injection. Calibration standards were prepared in drug-free foal plasma, BAL fluid or urine and then extracted as described above so that standard curves specific to each biologic matrix could be constructed.

[2] = Repeated dose IV LG or FG: gentamicin in plasma, BAL cells and urine of foals
Experimental: Each dose was diluted in 250 ml of sterile 0.9% saline and administered over 15 minutes via an indwelling 14 G catheter placed in a jugular vein. Blood samples for plasma separation and measurement of gentamicin concentrations were obtained on day 1 and on day 7 at the times listed for study 1. Bronchoalveolar lavage fluid was collected 2, 6 and 24 hours after the end of infusion on day 7. Urine was collected the day prior to the first drug dose (day 0) and again 2 hours after the end of the infusion on days 3 and 7. Foals were sedated with xylazine hydrochloride (1.1 mg/kg bwt IV) and anesthetized with ketamine (2.2 mg/kg bwt IV) to allow passage of a urinary catheter using aseptic techniques. Urinalysis was performed and urine and concurrently obtained plasma samples were submitted for measurement of creatinine, γ-glutamyltransferase (GGT), protein, calcium, chloride, magnesium, sodium, and potassium concentrations. Fractional excretion of electrolytes, urinary GGT to creatinine ratio, and urinary protein to creatinine ratios were calculated. Prior to analysis for gentamicin concentration by LC-MS, urine and plasma samples were centrifuged at 400×g for 10 minutes and the supernatant was frozen at −80° C. until assayed.
as §1
as §2, with “constructed. […] Analyte separation and LC-MS/MS measurement of gentamicin were performed exactly as described previously (Burton et al. (2013) Equine Vet J. 45, 507-511) except that BAL fluid samples, were introduced in the MS with a flow rate of 0.18 ml/minutes and a total run time of 8 minutes due to relatively low gentamicin concentration in those samples.” for “constructed.”
Estimation of the volume of PELF was determined by urea dilution method (Rennardet al. (1986) J. Appl. Physiol 60, 532-538).

[3] = simulation, Burton et al. 2013, cited from earlier work
[4] = 6.6 mg/kg IV q 24 h, 7 doses, day 7

Substance: gentamicin sulfate [Free Gentamicin]
- AUC0-t ([1]; IV): 44.66 ± 20.96^a μg · h/ml
- C24 h ([1]; IV): 0.84 ± 0.64 µg/mL
- Tmax (median and range) ([1]; IV): 6 (4-8) h
- AUC0-24 ([1]; IV, Table 2): 44.8 ± 21.0 µg·h/mL
- C48 h ([1]; IV, Table 2): 0.84 ± 0.64 µg/mL
- Cmax ([1]; IV, Table 2): 4.6 ± 1.9 µg/mL
- Cmax ([1]; IV, Table 5): 4.64 ± 1.99^a μg/ml
- AUC0-24 ([1]; N (nebulized), Table 2): 41.0 ± 15.8 µg·h/mL
- C48 h ([1]; N (nebulized), Table 2): 0.35 ± 0.34 µg/mL
- Cmax ([1]; N (nebulized), Table 2): 13.0 ± 6.7 µg/mL
- AUC0-t ([1]; Neb): 40.97 ± 15.81^a μg · h/ml
- C24 h ([1]; Neb): 0.35 ± 0.34 µg/mL
- Tmax (median and range) ([1]; Neb): 2 (2-2) h
- Cmax ([1]; Neb, Table 5): 13.02 ± 6.70^c μg/ml
- AUC0-t in BAL cells [2, 4]: 104.8 ± 35.1 µg·h/mL
- Cmax in BAL cells [2, 4]: 6.7 ± 1.9 µg/mL
- Concentration in BAL cells at 24 hours [2, 4]: 3.5 ± 1.8 µg/mL
- Tmax in BAL cells (median) ([2]; 6.6 mg/kg IV q 24 h, 7 doses, day 7, range 2-24 hours): 6 h
- Urine gentamicin ([2]; Day 3): 94.8 ± 47.5 µg/mL
- Urine gentamicin ([2]; Day 7): 87.5 ± 5 µg/mL
- accumulation in plasma over 1 week of daily administration ([2]; day 1 vs day 7 plasma pharmacokinetic variables): no accumulation
- predicted plasma concentration 1 hour after IV administration ([3]; at 4 weeks of age): 25.27 ± 9.52 µg/mL
- predicted plasma concentration 24 hours after administration ([3]; at 4 weeks of age): 0.20 ± 0.22 µg/mL
- predicted plasma concentration 1 hour after IV administration ([3]; at 12 weeks of age): 34.52 ± 14.11 µg/mL
- predicted plasma concentration 24 hours after administration ([3]; at 12 weeks of age): 0.26 ± 0.11 µg/mL
